Test results taken from US20240400564A1 (Syndax Pharmaceuticals, Inc, priority 2021, published 2024).

Biological target: hERG (Homo sapiens, UniProt Q12809)
Test: Patch clamp assay (hERG tail currents, whole-cell)

Chain of hERG (Q12809 whole entry): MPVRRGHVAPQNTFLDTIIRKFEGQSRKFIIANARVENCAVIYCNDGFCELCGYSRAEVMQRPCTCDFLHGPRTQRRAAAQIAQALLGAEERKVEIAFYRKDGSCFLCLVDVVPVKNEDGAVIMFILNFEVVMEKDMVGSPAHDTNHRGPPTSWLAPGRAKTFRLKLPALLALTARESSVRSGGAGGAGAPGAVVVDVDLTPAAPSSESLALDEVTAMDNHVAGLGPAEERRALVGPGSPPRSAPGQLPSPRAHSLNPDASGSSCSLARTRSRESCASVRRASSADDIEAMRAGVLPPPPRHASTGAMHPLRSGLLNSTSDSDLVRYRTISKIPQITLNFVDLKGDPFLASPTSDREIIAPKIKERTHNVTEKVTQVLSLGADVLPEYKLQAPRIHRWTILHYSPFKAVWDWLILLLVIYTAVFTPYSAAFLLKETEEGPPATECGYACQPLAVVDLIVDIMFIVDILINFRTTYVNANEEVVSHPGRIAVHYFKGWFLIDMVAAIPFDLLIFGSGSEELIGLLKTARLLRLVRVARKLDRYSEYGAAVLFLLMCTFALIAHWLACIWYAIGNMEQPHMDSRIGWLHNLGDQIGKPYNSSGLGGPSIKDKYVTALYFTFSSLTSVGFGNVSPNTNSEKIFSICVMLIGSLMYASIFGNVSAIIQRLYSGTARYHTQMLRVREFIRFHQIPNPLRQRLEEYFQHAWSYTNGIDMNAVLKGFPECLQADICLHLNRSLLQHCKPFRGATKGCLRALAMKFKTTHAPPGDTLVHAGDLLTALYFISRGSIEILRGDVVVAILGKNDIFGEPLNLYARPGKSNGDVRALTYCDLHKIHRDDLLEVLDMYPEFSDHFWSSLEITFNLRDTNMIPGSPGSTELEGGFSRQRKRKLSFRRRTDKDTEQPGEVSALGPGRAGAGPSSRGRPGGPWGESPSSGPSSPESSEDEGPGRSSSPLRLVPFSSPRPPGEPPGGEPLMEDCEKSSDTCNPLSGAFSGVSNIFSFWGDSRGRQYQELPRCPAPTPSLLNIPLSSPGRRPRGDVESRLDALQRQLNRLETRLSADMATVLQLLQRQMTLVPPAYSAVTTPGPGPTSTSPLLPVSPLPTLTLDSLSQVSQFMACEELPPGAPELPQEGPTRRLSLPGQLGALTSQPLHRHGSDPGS

SMILES	hERG % Remaining (10 μM compound)	hERG % Remaining (30 μM compound)
CC(C)N(CC(F)F)C(=O)c1cc(F)ccc1Oc1cncnc1N1CC2(CCN(C[C@@H]3CC[C@@H](NS(=O)(=O)N4CCC4)CO3)CC2)C1 [Example 99, 2-((4-(7-(((2S,5R)-5-(Azetidine-1-sulfonamido)tetrahydro-2H-pyran-2-yl)methyl)-2,7-diazaspiro[3.5]nonan-2-yl)pyrimidin-5-yl)oxy)-N-(2,2-difluoroethyl)-5-fluoro-N-isopropylbenzamide]	+++ (≥66%)	++ (233% and ≤66%)
CC(C)N(CC(F)F)C(=O)c1cc(F)ccc1Oc1cncnc1N1CC2(CCN(C[C@@H]3CC[C@@H](NS(=O)(=O)N(C)C(C)C)CO3)CC2)C1 [Example 101, N-(2,2-Difluoroethyl)-5-fluoro-N-isopropyl-2-((4-(7-(((2S,5R)-5-((N-isopropyl-N-methylsulfamoyl)amino)tetrahydro-2H-pyran-2-yl)methyl)-2,7-diazaspiro[3.5]nonan-2-yl)pyrimidin-5-yl)oxy)benzamide]		+ (<33%)
CNS(=O)(=O)N[C@@H]1CC[C@@H](CN2CCC3(CC2)CN(c2ncncc2Oc2ccc(F)cc2C(=O)N(CC(F)F)C(C)C)C3)OC1 [Example 102, N-(2,2-Difluoroethyl)-5-fluoro-N-isopropyl-2-((4-(7-(((2S,5R)-5-((N-methylsulfamoyl)amino)tetrahydro-2H-pyran-2-yl)methyl)-2,7-diazaspiro[3.5]nonan-2-yl)pyrimidin-5-yl)oxy)benzamide]		+++ (≥66%)
CC(C)N(CC(F)(F)F)C(=O)c1cc(F)ccc1Oc1cncnc1N1CC2(CCN(C[C@@H]3CC[C@@H](NS(=O)(=O)N(C)C)CO3)CC2)C1 [Example 107, 2-((4-(7-(((2S,5R)-5-((N,N-Dimethylsulfamoyl)amino)tetrahydro-2H-pyran-2-yl)methyl)-2,7-diazaspiro[3.5]nonan-2-yl)pyrimidin-5-yl)oxy)-5-fluoro-N-isopropyl-N-(2,2,2-trifluoroethyl)benzamide]	+++ (≥66%)	++ (233% and ≤66%)
CC(C)N(C(=O)c1cc(F)ccc1Oc1cncnc1N1CC2(CCN(C[C@@H]3CC[C@@H](NS(=O)(=O)C4CC4)CO3)CC2)C1)C1CC(F)(F)C1 [Example 111, 2-((4-(7-(((2S,5R)-5-(Cyclopropanesulfonamido)tetrahydro-2H-pyran-2-yl)methyl)-2,7-diazaspiro[3.5]nonan-2-yl)pyrimidin-5-yl)oxy)-N-(3,3-difluorocyclobutyl)-5-fluoro-N-isopropylbenzamide]	++ (233% and ≤66%)	+ (<33%)
CC(C)N(C(=O)c1cc(F)ccc1Oc1cncnc1N1CC2(CCN(C[C@@H]3CC[C@@H](NS(=O)(=O)N(C)C)CO3)CC2)C1)C1CC(F)(F)C1 [Example 113, N-(3,3-Difluorocyclobutyl)-2-((4-(7-(((2S,5R)-5-((N,N-dimethylsulfamoyl)amino)tetrahydro-2H-pyran-2-yl)methyl)-2,7-diazaspiro[3.5]nonan-2-yl)pyrimidin-5-yl)oxy)-5-fluoro-N-isopropylbenzamide]	+++ (≥66%)	++ (233% and ≤66%)
CCN(CC)S(=O)(=O)N[C@@H]1CC[C@@H](CN2CCC3(CC2)CN(c2ncncc2Oc2ccc(F)cc2C(=O)N(C(C)C)C2CC(F)(F)C2)C3)OC1 [Example 114, 2-((4-(7-(((2S,5R)-5-((N,N-Diethylsulfamoyl)amino)tetrahydro-2H-pyran-2-yl)methyl)-2,7-diazaspiro[3.5]nonan-2-yl)pyrimidin-5-yl)oxy)-N-(3,3-difluorocyclobutyl)-5-fluoro-N-isopropylbenzamide]	+ (<33%)	+ (<33%)
CC(C)N(C(=O)c1cc(F)ccc1Oc1cncnc1N1CC2(CCN(C[C@@H]3CC[C@@H](NS(=O)(=O)N4CCC4)CO3)CC2)C1)C1CC(F)(F)C1 [Example 118, 2-((4-(7-(((2S,5R)-5-(Azetidine-1-sulfonamido)tetrahydro-2H-pyran-2-yl)methyl)-2,7-diazaspiro[3.5]nonan-2-yl)pyrimidin-5-yl)oxy)-N-(3,3-difluorocyclobutyl)-5-fluoro-N-isopropylbenzamide]	++ (233% and ≤66%)	+ (<33%)
CC(C)N(C(=O)c1cc(F)ccc1Oc1cncnc1N1CC2(CCN(C[C@@H]3CC[C@@H](NS(=O)(=O)N(C)C(C)C)CO3)CC2)C1)C1CC(F)(F)C1 [Example 119, N-(3,3-Difluorocyclobutyl)-5-fluoro-N-isopropyl-2-((4-(7-(((2S,5R)-5-((N-isopropyl-N-methylsulfamoyl)amino)tetrahydro-2H-pyran-2-yl)methyl)-2,7-diazaspiro[3.5]nonan-2-yl)pyrimidin-5-yl)oxy)benzamide]		+ (<33%)
C[C@@H]1COC[C@@H](C)N1C(=O)c1cc(F)ccc1Oc1cncnc1N1CC2(CCN(C[C@@H]3CC[C@@H](NS(=O)(=O)c4ccccc4)CO3)CC2)C1 [Example 120, N-((3R,6S)-6-((2-(5-(2-((3R,5R)-3,5-Dimethylmorpholine-4-carbonyl)-4-fluorophenoxy)pyrimidin-4-yl)-2,7-diazaspiro[3.5]nonan-7-yl)methyl)tetrahydro-2H-pyran-3-yl)benzenesulfonamide]	+++ (≥66%)	++ (233% and ≤66%)
C[C@@H]1COC[C@@H](C)N1C(=O)c1cc(F)ccc1Oc1cncnc1N1CC2(CCN(C[C@@H]3CC[C@@H](NS(=O)(=O)N4CCC4)CO3)CC2)C1 [Example 121, N-((3R,6S)-6-((2-(5-(2-((3R,5R)-3,5-Dimethylmorpholine-4-carbonyl)-4-fluorophenoxy)pyrimidin-4-yl)-2,7-diazaspiro[3.5]nonan-7-yl)methyl)tetrahydro-2H-pyran-3-yl)azetidine-1-sulfonamide]		+++ (≥66%)
Cc1nc(S(=O)(=O)N[C@@H]2CC[C@@H](CN3CCC4(CC3)CN(c3ncncc3Oc3ccc(F)cc3C(=O)N3[C@H](C)COC[C@H]3C)C4)OC2)cs1 [Example 122, N-((3R,6S)-6-((2-(5-(2-((3R,5R)-3,5-Dimethylmorpholine-4-carbonyl)-4-fluorophenoxy)pyrimidin-4-yl)-2,7-diazaspiro[3.5]nonan-7-yl)methyl)tetrahydro-2H-pyran-3-yl)-2-methylthiazole-4-sulfonamide]		+++ (≥66%)
C[C@@H]1COC[C@@H](C)N1C(=O)c1cc(F)ccc1Oc1cncnc1N1CC2(CCN(C[C@@H]3CC[C@@H](NS(=O)(=O)N(C)C)CO3)CC2)C1 [Example 123, {[(3R,6S)-6-{[2-(5-{2-[(3R,5R)-3,5-Dimethylmorpholine-4-carbonyl]-4-fluorophenoxy}pyrimidin-4-yl)-2,7-diazaspiro[3.5]nonan-7-yl]methyl}oxan-3-yl]sulfamoyl}dimethylamine]		+++ (≥66%)
CCNS(=O)(=O)N[C@@H]1CC[C@@H](CN2CCC3(CC2)CN(c2ncncc2Oc2ccc(F)cc2C(=O)N2[C@H](C)COC[C@H]2C)C3)OC1 [Example 125, {[(3R,6S)-6-{[2-(5-{2-[(3R,5R)-3,5-Dimethylmorpholine-4-carbonyl]-4-fluorophenoxy}pyrimidin-4-yl)-2,7-diazaspiro[3.5]nonan-7-yl]methyl}oxan-3-yl]sulfamoyl}(ethyl)amine]		+++ (≥66%)
C[C@@H]1COC[C@H](C)N1C(=O)c1cc(F)ccc1Oc1cncnc1N1CC2(CCN(C[C@@H]3CC[C@@H](NS(=O)(=O)c4ccccc4)CO3)CC2)C1 [Example 130, N-((3R,6S)-6-((2-(5-(2-((3S,5R)-3,5-Dimethylmorpholine-4-carbonyl)-4-fluorophenoxy)pyrimidin-4-yl)-2,7-diazaspiro[3.5]nonan-7-yl)methyl)tetrahydro-2H-pyran-3-yl)benzenesulfonamide]	+++ (≥66%)	++ (233% and ≤66%)
CC(C)N(C(=O)c1cc(F)ccc1Oc1cncnc1N1CC2(CCN(C[C@@H]3CC[C@@H](NS(=O)(=O)N4CCC4)CO3)CC2)C1)[C@H]1CCOC1 [Example 134, 2-((4-(7-(((2S,5R)-5-(Azetidine-1-sulfonamido)tetrahydro-2H-pyran-2-yl)methyl)-2,7-diazaspiro[3.5]nonan-2-yl)pyrimidin-5-yl)oxy)-5-fluoro-N-isopropyl-N-((S)-tetrahydrofuran-3-yl)benzamide]		+++ (≥66%)
CC(C)N(CCC#N)C(=O)c1cc(F)ccc1Oc1cncnc1N1CC2(CCN(C[C@@H]3CC[C@@H](NS(=O)(=O)c4ccccc4)CO3)CC2)C1 [Example 136, N-(2-Cyanoethyl)-5-fluoro-N-isopropyl-2-((4-(7-(((2S,5R)-5-(phenylsulfonamido)tetrahydro-2H-pyran-2-yl)methyl)-2,7-diazaspiro[3.5]nonan-2-yl)pyrimidin-5-yl)oxy)benzamide]	+++ (≥66%)	+ (<33%)
CC(C)N(C)C(=O)c1cc(F)ccc1Oc1cncnc1N1CC2(CCN(C[C@@H]3CC[C@@H](NS(=O)(=O)N4CCC4)CO3)CC2)C1 [Example 138, 2-((4-(7-(((2S,5R)-5-(Azetidine-1-sulfonamido)tetrahydro-2H-pyran-2-yl)methyl)-2,7-diazaspiro[3.5]nonan-2-yl)pyrimidin-5-yl)oxy)-5-fluoro-N-isopropyl-N-methylbenzamide]		+++ (≥66%)
CCNS(=O)(=O)N[C@@H]1CC[C@@H](CN2CCC3(CC2)CN(c2ncncc2Oc2ccc(F)cc2C(=O)N(CC)C(C)C)C3)OC1 [Example 141, N-Ethyl-2-((4-(7-(((2S,5R)-5-((N-ethylsulfamoyl)amino)tetrahydro-2H-pyran-2-yl)methyl)-2,7-diazaspiro[3.5]nonan-2-yl)pyrimidin-5-yl)oxy)-5-fluoro-N-isopropylbenzamide]		+++ (≥66%)
CCN(C(=O)c1cc(F)ccc1Oc1cncnc1N1CC2(CCN(C[C@@H]3CC[C@@H](NS(=O)(=O)NC4CC4)CO3)CC2)C1)C(C)C [Example 142, 2-((4-(7-(((2S,5R)-5-((N-Cyclopropylsulfamoyl)amino)tetrahydro-2H-pyran-2-yl)methyl)-2,7-diazaspiro[3.5]nonan-2-yl)pyrimidin-5-yl)oxy)-N-ethyl-5-fluoro-N-isopropylbenzamide]		++ (233% and ≤66%)
